Measured values from patent US20250177357A1, “METHODS FOR TREATING HYPERTROPHIC CARDIOMYOPATHY” (priority 2021, published 2025).

Legend:
[1] = Phase 1 plasma pharmacokinetics, CYP2D6 poor metabolizer cohort; type: in vivo, human; settings: CYP2D6 poor metabolizers, single 10 mg, n = 7
Procedure: CYP2D6 poor metabolizer cohort.
CYP2D6 genotypes were determined at screening for all study participants; those identified as CYP2D6-PMs were excluded from the SAD and MAD cohorts but were invited to participate in the CYP2D6-PM cohort. The first individual in the CYP2D6-PM cohort was dosed after the SAD 25-mg cohort (FIG. 2). […] Nine participants were randomized (7:2) with a sentinel dosing group consisting of the first 2 participants treated.
Pharmacokinetic analyses. For all study groups, blood samples for PK assessment were obtained pre-dose, up to 12 times daily on day 1, and then at regular intervals throughout the study. Blood samples were collected according to the following schedule: SAD Cohorts: Day 1: pre-dose and 0.25, 0.5, 1, 1.5, 2, 2.5, 3, 4, 6, 8, 12, 16, 24, 36, 48, 72, 96, and 216 h post dose. MAD Cohorts (14-day Dosing): Day 1: pre-dose and 0.25, 0.5, 1, 1.5, 2, 2.5, 3, 4, 6, 8, and 12 h post dose; Days 2, 4, 5, 6, and 9: pre-dose (corresponding to trough samples following dosing on days 1, 3, 4, 5, and 8) and 1.5 h post dose; Days 3, 7, 8, 10, 11, 12, and 13: pre-dose (corresponding to trough samples following dosing on days 2, 6, 7, 9, 10, 11, and 12); Day 14: pre-dose and 0.25, 0.5, 1.5, 2, 2.5, 3, 4, 6, 8, 12, 16, 24, 36, 48, 72, and 168 h post dose. […]

[2] = Phase 1 plasma pharmacokinetics, multiple-ascending dose cohorts; type: in vivo, human; settings: for CLss/F, mean ± SD: n = 6
Procedure: Multiple-ascending dose (MAD) cohorts. The MAD cohorts also used a randomized, double-blind, placebo-controlled, sequential design.
Pharmacokinetic analyses. For all study groups, blood samples for PK assessment were obtained pre-dose, up to 12 times daily on day 1, and then at regular intervals throughout the study. Blood samples were collected according to the following schedule: SAD Cohorts: Day 1: pre-dose and 0.25, 0.5, 1, 1.5, 2, 2.5, 3, 4, 6, 8, 12, 16, 24, 36, 48, 72, 96, and 216 h post dose. MAD Cohorts (14-day Dosing): Day 1: pre-dose and 0.25, 0.5, 1, 1.5, 2, 2.5, 3, 4, 6, 8, and 12 h post dose; Days 2, 4, 5, 6, and 9: pre-dose (corresponding to trough samples following dosing on days 1, 3, 4, 5, and 8) and 1.5 h post dose; Days 3, 7, 8, 10, 11, 12, and 13: pre-dose (corresponding to trough samples following dosing on days 2, 6, 7, 9, 10, 11, and 12); Day 14: pre-dose and 0.25, 0.5, 1.5, 2, 2.5, 3, 4, 6, 8, 12, 16, 24, 36, 48, 72, and 168 h post dose. MAD Cohort (17-Day Dosing): Day 1: pre-dose and 0.25, 0.5, 1, 1.5, 2, 2.5, 3, 4, 6, 8, and 12 h post dose; Days 2, 4, 5, 6, and 9: pre-dose (corresponding to trough samples following dosing on days 1, 3, 4, 5, and 8) and 1.5 h post dose; Days 3, 7, 8, 10, 11, 12, 13, 14, 15, and 16: pre-dose (corresponding to trough samples following dosing on days 2, 6, 7, 9, 10, 11, and 12); Day 17: pre-dose and 0.25, 0.5, 1.5, 2, 2.5, 3, 5, 7, 9, 12, 24, 36, 48, 72, and 168 h post dose. CYPD6-PM Cohort: Day 1: pre-dose and 0.25, 0.5, 1, 1.5, 2, 2.5, 3, 4, 6, 8, 12, 16, 24, 36, 48, 72, 96, 216, 312, and 552 h post dose. Food-Effect Cohort: Day 1: pre-dose and 0.25, 0.5, 1, 1.5, 2, 2.5, 3, 4, 6, 8, 12, 16, 24, 36, 48, 72, 96, 144, and 216 h post dose. Standard non-compartmental methods were used to calculate PK parameters using Phoenix® WinNonlin® Version 7.0; actual sample collection times were utilized.
For the MAD cohort, the parameters were AUC24 and Cmax on day 1, plus AUC to the […] (AUCtau) and Cmax on day 14 or 17. The statistical linear relationship between the ln-transformed PK parameters and the ln-transformed dose was verified by including the quadratic (ln Dose)^2 and cubic (ln Dose)^3 effects. […] The dose-proportionality analysis was performed using SAS® PROC MIXED.
An analysis of variance (ANOVA) model was conducted separately for each dose level; day was included as the fixed effect. Helmert contrasts were developed such that each time-point was compared with the mean of the subsequent time-points.

## CCc1nc(-c2ccc3c(c2)CC[C@H]3NC(=O)c2cnn(C)c2)no1 [aficamten, (R)—N-(5-(5-ethyl-1,2,4-oxadiazol-3-yl)-2,3-dihydro-1H-inden-1-yl)-1-methyl-1H-pyrazole-4-carboxamide]
[1]
  CL/F, mean ± SD: 3.6 ± 1.4 L/h
[2]; 5-mg and 7.5-mg doses once daily
  Steady state achieved by the end of day: 12 days
[2]; 10-mg dose once daily
  Steady state achieved by the end of day: 10 days
[2]; Day 14, 5 mg qd × 14 Days
  CLss/F, mean ± SD: 3.9 ± 0.9 L/h
[2]; Day 14, 10 mg qd × 14 Days
  CLss/F, mean ± SD: 3.9 ± 0.8 L/h
[2]; Day 17, 7.5 mg qd × 17 Days
  CLss/F, mean ± SD: 3.1 ± 0.7 L/h
[2]; once-daily dosing
  Time within which steady state is achieved: ≤ 2 weeks
